Holding throughout (assay): NCI anticancer screen, dose series, 48 h
For experiment [1], the system named is RPMI-8226.
In experiment [2] the test system is DU-145.
Experiment [3] relates to OVCAR-3.
The subject of experiment [4] is SK-MEL-5.
Experiment [5] concerns SW-620.
For experiment [6], the system named is UACC-257.
The test system of experiment [7] is HCT-15.
The subject of experiment [8] is KM12.
For experiment [9], the system named is HOP-62.
The subject of experiment [10] is RXF 393.
Experiment [11] concerns IGROV-1.
In experiment [12] the test system is NCI-H522.
The test system of experiment [13] is HOP-92.
Experiment [14] deals with TK-10.
The test system of experiment [15] is K562.
Experiment [16] concerns UO-31.
For experiment [17], the system named is HCT-116.
Experiment [18] concerns CCRF-CEM.
The test system of experiment [19] is EKVX.
Experiment [20] relates to HCC 2998.

Results on eleven compounds are retold here after ChEMBL document CHEMBL1201862, “PubChem BioAssay data set” (2004).

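Five compound concentrations were applied to cells in 96-well plates for 48 hours; endpoints were derived by simple linear interpolation of the resulting dose-response curve. GI50 marks 50% less growth.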 Calls of active or inactive are those of the source. No stated cut-off is given here; in the data, active = GI50 up to about 1.1 µM and inactive = higher.

Regarding `CCCCCCCCCCCCCC(=O)O.O=CC(O)C(O)C(OC1OC(CO)C(O)C(O)C1O)C(O)CO` (stereo not drawn), the GI50 in experiment [1] is 19.8 µM (inactive); in [2], > 100 µM (inactive); in experiment [3], > 100 µM (inactive); in experiment [4], 56.8 µM (inactive); in [5], > 100 µM (inactive); in experiment [6] it was > 100 µM (inactive). The GI50 in experiment [7] was 22.9 µM; in [8], 23.2 µM (inactive); in [9] it was 44.8 µM (inactive); in [10], > 100 µM (inactive); in experiment [11] it was 26.3 µM (inactive); in [12] it was 57.4 µM (inactive). In addition, the GI50 in experiment [13] is 48.3 µM (inactive); in experiment [14], 37.7 µM (inactive); in experiment [15], 26.4 µM (inactive); in experiment [16], > 100 µM (inactive); in experiment [17] it was > 100 µM (inactive).

In the case of `COP(=O)(OC)C(C)(C)NC(=O)NC(F)(F)F`, the GI50 in experiment [1], in experiment [2], in experiment [3], in experiment [4], in [5] and in experiment [6] was > 100 µM (inactive) in each case. Further, the GI50 is > 100 µM (inactive) in experiment [18]; greater than 100 µM in experiment [7]; > 100 µM (inactive) in experiment [8]; > 100 µM (inactive) in [9]; > 100 µM (inactive) in [10]; > 100 µM (inactive) in experiment [19]. Moreover, the GI50 in [11], in [20], in experiment [14], in experiment [15], in [16] and in [17] was > 100 µM (inactive) in each case.

In the case of `Cc1ccn2c(CCc3nnc4cc(C)ccn34)nnc2c1`, the GI50 in experiment [1], in [2], in experiment [3], in experiment [4], in experiment [5] and in experiment [6] was > 100 µM (inactive) throughout. Further, the GI50 in experiment [7] was greater than 100 µM; in experiment [8], > 100 µM (inactive); in experiment [9], > 100 µM (inactive); in experiment [10], > 100 µM (inactive); in experiment [19], > 100 µM (inactive); in experiment [11] it was > 100 µM (inactive). Besides, the GI50 in experiment [12], in experiment [13], in experiment [14], in [16] and in experiment [17] was > 100 µM (inactive) throughout.

In the case of `CCOC(=O)COc1ccc(OCC(=O)OCC)c2c1C(=O)CCCC2=O`, the GI50 in experiment [1] was > 100 µM (inactive); in experiment [3], > 100 µM (inactive); in experiment [4] it was 0.26 µM (active); in experiment [5], > 100 µM (inactive); in experiment [6] it was > 100 µM (inactive); in experiment [18], > 100 µM (inactive). In addition, the GI50 in experiment [7] is greater than 100 µM; in experiment [8] it was > 100 µM (inactive); in experiment [9], > 100 µM (inactive); in experiment [10], > 100 µM (inactive); in experiment [19] it was > 100 µM (inactive); in experiment [11] it was 3.13 µM (inactive). Moreover, the GI50 in experiment [12], in experiment [20], in experiment [13], in [14], in [15] and in [16] was > 100 µM (inactive) throughout. In addition, the GI50 in [17] is > 100 µM (inactive).

Turning to `O=C1CC2(CCNCC2)C(=O)N1N1CCCC1`, the GI50 in [1], in experiment [2], in experiment [3], in experiment [4], in experiment [5] and in [6] was > 100 µM (inactive) throughout. The GI50 in [18] was > 100 µM (inactive); in experiment [7], greater than 100 µM; in experiment [8] it was > 100 µM (inactive); in experiment [9], > 100 µM (inactive); in experiment [10] it was > 100 µM (inactive); in experiment [19], > 100 µM (inactive). Besides, the GI50 in experiment [11], in experiment [12], in experiment [20], in [14], in [15] and in experiment [16] was > 100 µM (inactive) throughout. Further, in experiment [17], the GI50 was > 100 µM (inactive).

`Cc1n[nH]c(=O)n1/N=C/c1ccco1`: the GI50 in experiment [1], in experiment [2], in experiment [3], in [5], in [6] and in experiment [18] was > 100 µM (inactive) throughout. Moreover, the GI50 was greater than 100 µM in experiment [7]; > 100 µM (inactive) in [8]; > 100 µM (inactive) in [9]; > 100 µM (inactive) in experiment [10]; > 100 µM (inactive) in [19]; > 100 µM (inactive) in experiment [20]. Further, the GI50 in [15], in experiment [16] and in experiment [17] was > 100 µM (inactive) throughout.

Consider `CCCCCCCCCCCC(=O)OCCOCCOCCOCCOCCOCc1ccccc1`, for which the GI50 in experiment [1], in [3], in experiment [4], in experiment [5], in [6] and in [18] was > 100 µM (inactive) each time. Moreover, the GI50 was greater than 100 µM in [7]; > 100 µM (inactive) in [8]; > 100 µM (inactive) in experiment [9]; > 100 µM (inactive) in [10]; > 100 µM (inactive) in experiment [19]; > 100 µM (inactive) in [11]. Besides, the GI50 in [12], in experiment [20], in [13], in experiment [14], in experiment [15] and in experiment [16] was > 100 µM (inactive) in each case. In [17], the GI50 was > 100 µM (inactive).

As for `Cc1ccc(NC(=O)CCCC(=O)CC(=O)c2ccc(Br)cc2)cc1`, the GI50 in experiment [1], in experiment [3], in experiment [4], in experiment [5], in experiment [6] and in experiment [18] was > 100 µM (inactive) each time. In addition, the GI50 is greater than 100 µM in [7]; > 100 µM (inactive) in experiment [8]; > 100 µM (inactive) in [9]; > 100 µM (inactive) in [10]; > 100 µM (inactive) in experiment [19]; > 100 µM (inactive) in experiment [11]. Moreover, the GI50 in experiment [12], in [20], in [13], in [14], in experiment [15] and in experiment [16] was > 100 µM (inactive) in each case. Besides, the GI50 in [17] was > 100 µM (inactive).

With `C=CCc1ccc(Oc2cc(CC=C)c3c(c2O)O[C@@H](CO)[C@H]3c2ccc(O)c(-c3cc(CC=C)ccc3O)c2)cc1`, the GI50 in experiment [1] is 32.5 µM (inactive); in experiment [3] it was 33 µM (inactive); in experiment [4], 87.3 µM (inactive); in [5], 33.9 µM (inactive); in experiment [6], > 100 µM (inactive); in [18] it was 20.5 µM (inactive). For the same compound, the GI50 in experiment [7] was 30.2 µM; in [8], 35.3 µM (inactive); in experiment [9] it was 55.7 µM (inactive); in experiment [10], 65.2 µM (inactive); in experiment [19], 46.7 µM (inactive); in experiment [11], 32.7 µM (inactive). Further, the GI50 in [12] is 18.3 µM (inactive); in [20] it was 45.9 µM (inactive); in experiment [13], 52.2 µM (inactive); in [14], > 100 µM (inactive); in experiment [15], 37.6 µM (inactive); in experiment [16], 77.1 µM (inactive). For the same compound, in experiment [17], the GI50 was 61.9 µM (inactive).

Consider `NC(=O)CCC(NC(=O)C(F)(F)F)C(=O)O` (stereo not drawn), for which the GI50 in experiment [1], in experiment [3], in experiment [4], in experiment [5], in experiment [6] and in experiment [18] was > 100 µM (inactive) in each case. Besides, the GI50 is greater than 100 µM in experiment [7]; > 100 µM (inactive) in experiment [8]; > 100 µM (inactive) in experiment [9]; > 100 µM (inactive) in experiment [10]; > 100 µM (inactive) in [19]; > 100 µM (inactive) in experiment [11]. Moreover, the GI50 in experiment [12], in experiment [20], in [13], in experiment [14], in [15] and in experiment [16] was > 100 µM (inactive) in each case. The GI50 in experiment [17] is > 100 µM (inactive).

For the compound `COc1ccc(C2c3cc4c(cc3OC(N3CCCCC3)C2C)OCO4)cc1` (stereo not drawn), the GI50 in experiment [1], in [2], in experiment [3], in experiment [4], in [5] and in experiment [6] was > 100 µM (inactive) throughout. The GI50 in [18] was > 100 µM (inactive); in experiment [7] it was greater than 100 µM; in experiment [8], > 100 µM (inactive); in experiment [9], > 100 µM (inactive); in experiment [19], > 100 µM (inactive); in [11] it was > 100 µM (inactive). Besides, the GI50 in experiment [12] was 83.6 µM (inactive); in experiment [14] it was > 100 µM (inactive); in experiment [15] it was > 100 µM (inactive); in [16], 85.3 µM (inactive); in experiment [17], > 100 µM (inactive).
